Experimental data as given in US5525596A, “Absorption enhancer/solubilizer combination for improved bioavailability of a zwitterionic compound” (Merck & Co., Inc., priority 1994, dated 1996).
Where two headings read alike, the source gives them in different places.

How the values were obtained:
[1] = Absorption of solid formulations (powders, tablets, beads) from unligated sections of the jejunum of anesthetized rats (bile collection); assay type: in vivo; settings: rat
Experimental: (§1) Solutions of palmitoyl carnitine, β-cyclodextrin and an [R-(R*,R*)]-3-[(2-hydroxypropyl)amino]-3-methyl-N-[2,3,4,5-tetrahydro-2-oxo-1-[[2'-(H-tetrazol-5-yl)[1,1'-biphenyl]-4-yl]methyl]-1H-1-benzazepin-3-yl]butanamide having the following structure: [drawing 1] hereinafter referred to as [R-(R*,R*)]-3-[(2-hydroxypropyl)amino]-3-methyl-N-[2,3,4,5-tetrahydro-2-oxo-1-[[2'-(H-tetrazol-5-yl)[1,1'-biphenyl]-4-yl]methyl]-1H-1-benzazepin-3-yl]butanamide were prepared such that [R-(R*,R*)]-3-[(2-hydroxypropyl)amino]-3-methyl-N-[2,3,4,5-tetrahydro-2-oxo-1-[[2'-(H-tetrazol-5-yl)[1,1'-biphenyl]-4-yl]methyl]-1H-1-benzazepin-3-yl]butanamide was maintained at 2 mg/ml. All solutions were prepared in Krebs-Henseleit buffer at Ph 7.4. The solutions were administered to ligated sections of the jejunum of anesthetized rats. […] The bile was collected in 15 minute intervals for 3.5 hours and analyzed for [R-(R*,R*)]-3-[(2-hydroxypropyl)amino]-3-methyl-N-[2,3,4,5-tetrahydro-2-oxo-1-[[2'-(H-tetrazol-5-yl)[1,1'-biphenyl]-4-yl]methyl]-1H-1-benzazepin-3-yl]butanamide content. From the bile volume, the total amount of drug eliminated could be calculated. After an IV dose, 92% of the drug is found in the bile. Therefore all value were divided by 0.92 to give true absorption values. These values are given in table 1, along with standard deviations which were observed.
Powders were prepared so as to contain in each dose, 2 mg/kg of [R-(R*,R*)]-3-[(2-hydroxypropyl)amino]-3-methyl-N-[2,3,4,5-tetrahydro-2-oxo-1-[[2'-(H-tetrazol-5-yl)[1,1'-biphenyl]-4-yl]methyl]-1H-1-benzazepin-3-yl]butanamide, 0-10 mg/kg palmitoyl carnitine chloride, 0-15 mg/kg β-cyclodextrin and microcrystalline cellulose. The powders were administered to unligated sections of the jujunum of anesthetized rats. Bile was collected and the absorption of [R-(R*,R*)]-3-[(2-hydroxypropyl)amino]-3-methyl-N-[2,3,4,5-tetrahydro-2-oxo-1-[[2'-(H-tetrazol-5-yl)[1,1'-biphenyl]-4-yl]methyl]-1H-1-benzazepin-3-yl]butanamide was determined as in Example 1. The results of these studies are provided in Table 2, along with observed standard deviations.
Lyophilized preparations of [R-(R*,R*)]-3-[(2-hydroxypropyl)amino]-3-methyl-N-[2,3,4,5-tetrahydro-2-oxo-1-[[2'-(H-tetrazol-5-yl)[1,1'-biphenyl]-4-yl]methyl]-1H-1-benzazepin-3-yl]butanamide were prepared from solutions containing 2 mg/ml of [R-(R*,R*)]-3-[(2-hydroxypropyl)amino]-3-methyl-N-[2,3,4,5-tetrahydro-2-oxo-1-[[2'-(H-tetrazol-5-yl)[1,1'-biphenyl]-4-yl]methyl]-1H-1-benzazepin-3-yl]butanamide and 15 mg/ml of β-cyclodextrin or 20 mg/ml hydroxypropyl-β-cyclodextrin. The lyophilized preparations were mixed with palmitoyl carnitine chloride and microcrystalline cellulose and compressed into tablets. The tablets contained 2 mg/kg of [R-(R*,R*)]-3-[(2-hydroxypropyl)amino]-3 -methyl -N-[2,3,4,5,-tetrahydro-2-oxo-1-[[2'-(H-tetrazol-5-yl)[1,1'biphenyl]-4-yl]methyl-1H1-benzazepin-3-yl]butanamide and 10 mg/kg palmitoyl carnitine chloride. The tablets were administered to the unligated sections of the jejunum of anesthetized rats. Bile was collected and the absorption of [R-(R*,R*)]-3-[(2-hydroxypropyl) amino]-3 -methyl -N- [2,3,4,5 -tetrahydro-2-oxo-1-[[2'-(H-tetrazol-5-yl)[1,1'-biphenyl]-4-yl]methyl]-1H- 1-benzazepin-3-yl]butanamide determined as in Example 1. The percentage absorption of [R-(R*,R*)]-3-[(2-hydroxypropyl)amino]-3-methyl-N-[2,3,4,5-tetrahydro-2-oxo-1-[[2'-(H-tetrazol-5-yl)[1,1'-biphenyl]-4-yl]methyl]-1H-1-benzazepin-3-yl]butanamide from the lyophilized formulation containing β-cyclodextrinwas 28.2±18.3 and from the hydroxpropyl-β-cyclodextrin, 7.5±6.2.
Fifteen parts of water were added to a mixture of [R-(R*,R*)]-3-[(2-hydroxypropyl)amino]-3-methyl-N-[2,3,4,5-tetrahydro-2-oxo-1-[[2'-(H-tetrazol-5-yl)[1,1'-biphenyl]-4-methyl]-1H-1-benzazepin-3-yl]butanamide, β-cyclodextrin, palmitoyl carnitine chloride, micro-crystalline cellulose and starct (2:15:10:15:10). The preparation was extruded through a screen ([…]) and spheronized. […]

[2] = Plasma/blood exposure after administration of compressed tablets to the duodenum of dogs; assay type: in vivo, dog; settings: tablet, 1 mg/kg drug, 10 mg/kg palmitoyl carnitine chloride, four hours
Experimental: Compressed tablets were prepared with and without 112 mg β-cyclodextrin (7.5 mg/kg), containing 15 mg of [R-(R*,R*)]-3-[(2-hydroxypropyl)amino]-3-methyl-N-[2,3,4,5-tetrahydro-2-oxo-1[[2'-(H-tetrazol-5-yl)[1,1'-biphenyl]-4-yl]methyl]-1H-1-benzazepin-3-yl]butanamide (1 mg/kg) and 150 mg palmitoyl carnitine chloride (10 mg/kg) in a tablet matrix containing 203 mg microcrystalline cellulose, 100 mg lactose, 20 mg corn starch and 2 mg magnesium stearate. The tablets were administered to the duodenum of dogs through a surgically prepared fistual. Serial blood samples were taken from the dogs for four hours after dosing and analyzed for [R-(R*,R*)]-3-[(2-hydroxypropyl)amino]-3-methyl-N -[2,3,4,5-tetra-hydro-2-oxo-1-[[2'-(H-tetrazol-5-yl)[1,1'-biphenyl]-4-yl]methyl]-1H-1-benzazepin-3-yl]butanamide. The results given as resulting area under [R-(R*,R*)]-3-[(2-hydroxy-propyl)amino] -3-methyl-N-[2,3,4,5-tetrahydro-2-oxo- 1-[[2'-(H-tetrazol-5-yl)[1,1'-biphenyl]-4-yl]methyl]-1H-1-benzazepin-3-yl]butanamide concentration-time curve ± standard deviations, are 361±168 ng min/ml in the absence of β-cyclodextrin and […] in the presence of β-cyclodextrin.

[3] = Biliary excretion in rats; assay type: in vivo, rat
Experimental: as §1

[4] = Jejunal absorption of drug solutions from ligated sections of the jejunum of anesthetized rats (bile collection); assay type: in vivo; settings: rat, pH 7.4, solution 2 mg/ml drug, read-out: % of Dose Absorbed Relative to IV (+/- s.d.)
Experimental: as §1

Fa ([1]; 2 mg/kg, powder, 2 mg/kg drug, palmitoyl carnitine chloride 0 mg/kg, β-cyclodextrin 0 mg/kg, read-out: absorption determined as in Example 1 (± standard deviation)): 0.18 ± 0.26%
Fa ([1]; 2 mg/kg, powder, 2 mg/kg drug, palmitoyl carnitine chloride 10 mg/kg, β-cyclodextrin 0 mg/kg, read-out: absorption determined as in Example 1 (± standard deviation)): 3.3 ± 1.9%
Fa ([1]; 2 mg/kg, powder, 2 mg/kg drug, palmitoyl carnitine chloride 10 mg/kg, β-cyclodextrin 7.5 mg/kg, read-out: absorption determined as in Example 1 (± standard deviation)): 8.9 ± 7.6%
Fa ([1]; 2 mg/kg, powder, 2 mg/kg drug, palmitoyl carnitine chloride 10 mg/kg, β-cyclodextrin 15 mg/kg, read-out: absorption determined as in Example 1 (± standard deviation)): 14.8 ± 9.8%
Fa ([1]; 2 mg/kg, tablet of lyophilized formulation containing β-cyclodextrin (15 mg/ml in solution), 2 mg/kg drug, 10 mg/kg palmitoyl carnitine chloride, read-out: percentage absorption): 28.2 ± 18.3%
Fa ([1]; spheronized beads, drug:β-cyclodextrin:palmitoyl carnitine chloride:microcrystalline cellulose:starch 2:15:10:15:10, read-out: absorption): 8.8%
Fa ([1]; tablet of lyophilized formulation containing hydroxypropyl-β-cyclodextrin (20 mg/ml in solution), 2 mg/kg drug, 10 mg/kg palmitoyl carnitine chloride, read-out: percentage absorption): 7.5 ± 6.2%
AUC at 4 h ([2]; dog, blood, absence of β-cyclodextrin, read-out: area under concentration-time curve ± standard deviations (converted)): 6.02 ng·h/mL
area under concentration-time curve ± standard deviations ([2]; presence of β-cyclodextrin (7.5 mg/kg)): 19.8 ± 8.18 ng·h/mL
dose excreted ([3]; rat, bile, after an IV dose, read-out: drug found in the bile): 92%
Fa at 3.5 h ([4]; palmitoyl carnitine chloride 0 mg/kg, β-cyclodextrin 0 mg/kg): 4.98 ± 5.67%
Fa at 3.5 h ([4]; palmitoyl carnitine chloride 0 mg/kg, β-cyclodextrin 7.5 mg/kg): 3.1 ± 1.59%
Fa at 3.5 h ([4]; palmitoyl carnitine chloride 0 mg/kg, β-cyclodextrin 15 mg/kg): 12 ± 7.23%
Fa at 3.5 h ([4]; palmitoyl carnitine chloride 5 mg/kg, β-cyclodextrin 0 mg/kg): 11.9 ± 2.6%
Fa at 3.5 h ([4]; palmitoyl carnitine chloride 5 mg/kg, β-cyclodextrin 7.5 mg/kg): 14 ± 5.4%
Fa at 3.5 h ([4]; palmitoyl carnitine chloride 5 mg/kg, β-cyclodextrin 15 mg/kg): 20.4 ± 15.2%
Fa at 3.5 h ([4]; palmitoyl carnitine chloride 10 mg/kg, β-cyclodextrin 0 mg/kg): 22.6 ± 13.5%
Fa at 3.5 h ([4]; palmitoyl carnitine chloride 10 mg/kg, β-cyclodextrin 7.5 mg/kg): 29.6 ± 8.2%
Fa at 3.5 h ([4]; palmitoyl carnitine chloride 10 mg/kg, β-cyclodextrin 15 mg/kg): 49.3 ± 13.4%
SMILES: C[C@@H](O)CNC(C)(C)CC(=O)N[C@@H]1CCc2ccccc2N(Cc2ccc(-c3ccccc3-c3nnn[nH]3)cc2)C1=O [[R-(R*,R*)]-3-[(2-hydroxypropyl)amino]-3-methyl-N-[2,3,4,5-tetrahydro-2-oxo-1-[[2'-(H-tetrazol-5-yl)[1,1'-biphenyl]-4-yl]methyl]-1H-1-benzazepin-3-yl]butanamide]
route of excretion [3]: excreted almost exclusively unchanged in the bile
